This note sets out measurements from publication PMC8159111 (Pathogens, 2021).

Like-named read-outs stand apart in the source and are kept apart here.

Data set [1] is described as follows: Cytotoxicity (CC50) determination, crystal violet assay. The format is cell-based. The conditions noted are these: African green monkey, Vero E6 cells, Table 4 prints no unit, Figure 4 prints μM, read-out: CC50 (half-maximal cytotoxic concentration). As for the experimental part: To assess the half maximal cytotoxic concentration (CC50), stock solutions of the test compounds were prepared in 10% DMSO in ddH2O and diluted further to the working solutions with DMEM. The cytotoxic activity of the extracts was tested in VERO-E6 cells by using crystal violet assay as previously described with minor modifications. Briefly, the cells were seeded in 96-well plates (100 µL/well at a density of 3 × 10^5 cells/mL) and incubated for 24 h at 37 °C in a humidified 5% CO2 incubator. After 24 h, cells were treated with various concentrations of the tested compounds in triplicates. Seventy two hours later, the supernatant was discarded, and cell monolayers were fixed with 10% formaldehyde for 1 h at room temperature (RT). The fixed monolayers were then dried and stained with 50 µL of 0.1% crystal violet for 20 min on a bench rocker at RT. The monolayers were then washed, dried and the crystal violet dye in each well was then dissolved with 200 µL of methanol for 20 min on a bench rocker at RT. The absorbance of crystal violet solutions was measured at λmax 570 nm as a reference wavelength using a multi-well plate reader.

The test system of data set [2] is SARS-CoV-2 "NRC-03-nhCoV" virus. The experiment in a line: Inhibitory concentration 50 (IC50) determination, reduction of virus-induced cytopathic effect in Vero-E6 cells. The format is cell-based. The note with it: for Selectivity Index (CC50/IC50): CC50 on Vero E6 / IC50 against NRC-03-nhCoV; for IC50: Severe acute respiratory syndrome coronavirus 2, Vero C1008, 72 h, unit not given in Table 4 and Figure 6, Figure 4 and text print μM. As for the experimental part:
The IC50 values for the tested compounds were determined as previously described, with minor modifications. Briefly, in 96-well tissue culture plates, 2.4 × 10^4 Vero-E6 cells were distributed in each well and incubated overnight at a humidified 37°C incubator under 5% CO2 condition. The cell monolayers were then washed once with 1× PBS. An aliquot of the SARS-CoV-2 “NRC-03-nhCoV” virus containing 100 TCID50 was incubated with serial diluted compounds and kept at 37 °C for 1 h. The Vero-E6 cells were treated with virus/compound mix and co-incubated at 37 °C in a total volume of 200 µL per well. Untreated cells infected with virus represented the virus control; however, cells that were not treated and not infected were the cell control. Following incubation at 37 °C in 5% CO2 incubator for 72 h, the cells were fixed with 100 μL of 10% paraformaldehyde for 20 min and stained with 0.5% crystal violet in distilled water for 15 min at RT. The crystal violet dye was then dissolved using 100 μL of absolute methanol per well and the optical density of the color was measured at 570 nm using the Anthos Zenyth 200 rt plate reader (Anthos Labtec Instruments, Heerhugowaard, the Netherlands).
Background: Cytopathic effects are the visible damage that an infection or toxin causes in cultured cells.

[3] abbreviates: against NRC-03-nhCoV in Vero E6, 72 h, CPE reduction, crystal violet, read-out: IC50 (half-maximal inhibitory concentration).

As to `Cc1cccc(-n2nncc2COC(=O)C23CCC(C)(C)CC2C2=CCC4C5(C)CCC(O)C(C)(C)C5CCC4(C)C2(C)CC3)c1` (stereo not drawn) [Compound 8, (1-(3-methylphenyl)-1H-1,2,3-triazol-5-yl)methyl-(3β)-3-hydroxyolean-12-en-28-oate], the CC50 at 72 h in data set [1] came to 170 µM. Also, the “Selectivity Index (CC50/IC50)” value in data set [2] amounted to 0.98. Besides, in data set [2] (setting [3]), the IC50 is 174 µM.
In the same order, the values of `C#CCOC(=O)[C@]12CCC(C)(C)CC1C1=CCC3[C@@]4(C)C[C@@H](O)[C@H](O)C(C)(C)C4CC[C@@]3(C)[C@]1(C)CC2` (stereo partly drawn) [Compound 4, Propargyl-(2α,3β)-2,3-dihydroxyolean-12-en-28-oate] are 157 µM, 0.67 and 236 µM.
In the same order, the values of `C#CCOC(=O)C12CCC(C)(C)CC1C1=CCC3C4(C)CC(OCC#C)C(O)C(C)(C)C4CCC3(C)C1(C)CC2` (stereo not drawn) [Compound 5, Propargyl-(2α)-2-(propargyloxy)-(3β)-3-hydroxy-olean-12-en-28-oate] are 90.6 µM, 1.06 and 85.2 µM.
Consider `COc1ccc(-c2cc(COC(=O)C34CCC(C)(C)CC3C3=CCC5C6(C)CCC(O)C(C)(C)C6CCC5(C)C3(C)CC4)on2)cc1` (stereo not drawn) [Compound 15, (3-(4-methoxyphenyl)isoxazol-5-yl) methyl-(3β)-3-hydroxyolean-12-en-28-oate], for which, in data set [2] (setting [3]), the IC50 came out at 523 µM.
Turning to `CC1(C)CC[C@]2(C(=O)OCc3cn(-c4ccc(Cl)cc4)nn3)CC[C@]3(C)C(=CCC4[C@@]5(C)C[C@@H](OCc6cn(-c7ccc(Cl)cc7)nn6)[C@H](O)C(C)(C)C5CC[C@]43C)C2C1` (stereo partly drawn) [Compound 12, (1-(4-Chlorophenyl)-1H-1,2,3-triazol-4-yl)methyl-(2α,3β)-2-((1-(4-chlorophenyl)-1H-1,2,3-triazol-4-yl)methoxy)-3-hydroxyolean-12-en-28-oate], the CC50 at 72 h in data set [1] came out at 514 µM. In data set [2], the “Selectivity Index (CC50/IC50)” value turned out to be 4.42.
Turning to `CC1(C)CC[C@]2(C(=O)O)CC[C@]3(C)C(=CC[C@@H]4[C@@]5(C)CC[C@H](O)C(C)(C)[C@@H]5CC[C@]43C)[C@@H]2C1` [Compound 1, Oleanolic acid], in data set [1], the CC50 at 72 h came out at 190 µM. Further, the “Selectivity Index (CC50/IC50)” value in data set [2] was found to be 0.39. For the same molecule, the IC50 in data set [2] (setting [3]) turned out to be 476 µM.
On the same counts, the results for `CC1(C)CCC2(C(=O)OCc3cn(-c4ccccc4)nn3)CCC3(C)C(=CCC4C5(C)CC(O)C(O)C(C)(C)C5CCC43C)C2C1` (stereo not drawn) [Compound 11, (1-Phenyl-1H-1,2,3-triazol-4-yl)methyl-(2α,3β)-2,3-dihydroxyolean-12-en-28-oate] are 218 µM, 1.62 and 135 µM.
Regarding `C#CCOC(=O)[C@]12CCC(C)(C)CC1C1=CCC3[C@@]4(C)CC[C@H](O)C(C)(C)C4CC[C@@]3(C)[C@]1(C)CC2` (stereo partly drawn) [Compound 3, Propargyl-(3β)-3-hydroxyolean-12-en-28-oate], the CC50 at 72 h in data set [1] amounted to 97.4 µM. In addition, the “Selectivity Index (CC50/IC50)” value in data set [2] came out at 2.32. In addition, the IC50 in data set [2] (setting [3]) was 42 µM.
On to `COc1ccc(-n2cc(COC(=O)[C@]34CCC(C)(C)CC3C3=CCC5[C@@]6(C)C[C@@H](OCc7cn(-c8ccc(OC)cc8)nn7)[C@H](OCc7cn(-c8ccc(OC)cc8)nn7)C(C)(C)C6CC[C@@]5(C)[C@]3(C)CC4)nn2)cc1` (stereo partly drawn) [Compound 14, (1-(4-Methoxyphenyl)-1H-1,2,3-triazol-4-yl)methyl-(2α,3β)-2,3-bis((1-(4-methoxyphenyl)-1H-1,2,3-triazol-4-yl)methoxy)-olean-12-en-28-oate], for which the CC50 at 72 h in data set [1] came out at 405 µM. The “Selectivity Index (CC50/IC50)” value in data set [2] is 2.96.
As to `COc1ccc(-c2cc(COC(=O)C34CCC(C)(C)CC3C3=CCC5C6(C)CC(O)C(O)C(C)(C)C6CCC5(C)C3(C)CC4)on2)cc1` (stereo not drawn) [Compound 16, (3-(4-methoxyphenyl)isoxazol-5-yl) methyl-(2α,3β)-2,3-dihydroxyolean-12-en-28-oate], the CC50 at 72 h in data set [1] stood at 324 µM. In addition, the “Selectivity Index (CC50/IC50)” value in data set [2] is 1.48. In addition, the IC50 in data set [2] (read-out: IC50 (half-maximal inhibitory concentration), against NRC-03-nhCoV in Vero E6, 72 h, CPE reduction, crystal violet) is 219 µM.
As to `CC1(C)CC[C@]2(C(=O)O)CC[C@]3(C)C(=CC[C@@H]4[C@@]5(C)C[C@@H](O)[C@H](O)C(C)(C)[C@@H]5CC[C@]43C)[C@@H]2C1` [Compound 2, Maslinic acid], in data set [1], the CC50 at 72 h came out at 97.3 µM. Further, in data set [2], the “Selectivity Index (CC50/IC50)” value is recorded as 0.97. In data set [2] (setting [3]), the IC50 was determined as 99.9 µM.
For the molecule `COc1ccc(-n2cc(COC(=O)[C@]34CCC(C)(C)CC3C3=CCC5[C@@]6(C)C[C@@H](O)[C@H](OCc7cn(-c8ccc(OC)cc8)nn7)C(C)(C)C6CC[C@@]5(C)[C@]3(C)CC4)nn2)cc1` (stereo partly drawn) [Compound 13, (1-(4-Methoxyphenyl)-1H-1,2,3-triazol-4-yl)methyl-(2α,3β)-2-hydroxy-3-((1-(4-methoxyphenyl)-1H-1,2,3-triazol-4-yl)methoxy)-olean-12-en-28-oate], the CC50 at 72 h in data set [1] is 356 µM. Besides, the “Selectivity Index (CC50/IC50)” value in data set [2] is reported as 2.24.
For `C#CCOC(=O)C12CCC(C)(C)CC1C1=CCC3C4(C)CC(OCC#C)C(OCC#C)C(C)(C)C4CCC3(C)C1(C)CC2` (stereo not drawn) [Compound 7, Propargyl-(2α,3β)-2,3-bis(propargyloxy)-olean-12-en-28-oate], the CC50 at 72 h in data set [1] is 97.4 µM. Besides, the “Selectivity Index (CC50/IC50)” value in data set [2] came to 0.90. Also, the IC50 in data set [2] (setting [3]) was determined as 108 µM.
In the case of `Cc1cccc(-n2cc(COC(=O)C34CCC(C)(C)CC3C3=CCC5C6(C)CCC(O)C(C)(C)C6CCC5(C)C3(C)CC4)nn2)c1` (stereo not drawn) [Compound 10, (1-(3-methylphenyl)-1H-1,2,3-triazol-4-yl)methyl-(3β)-3-hydroxyolean-12-en-28-oate], in data set [1], the CC50 at 72 h was 277 µM. For the same molecule, in data set [2], the “Selectivity Index (CC50/IC50)” value was determined as 3.68. Also, in data set [2] (setting [3]), the IC50 is 75.3 µM.
On the same counts, the results for `C#CCOC(=O)C12CCC(C)(C)CC1C1=CCC3C4(C)CC(O)C(OCC#C)C(C)(C)C4CCC3(C)C1(C)CC2` (stereo not drawn) [Compound 6, Propargyl-(3α)-3-(propargyloxy)-(2β)-2-hydroxy-olean-12-en-28-oate] are 209 µM, 1.55 and 135 µM.
